Patent US10443103B2, “Chemotherapy regimen selection” (Innomedicine, LLC, priority 2015, dated 2019)

Tested on: breast cancer
Experiment: Observed pathologic complete response (pCR) rate after neoadjuvant chemotherapy, GEO data sets
Format: in vivo, human
Conditions: Total of 7 GEO data sets, whole study population
Procedure: Herein, data was reanalyzed from several previous studies in which breast cancer patients were treated with neoadjuvant chemotherapy. Chemotherapies can be given at different stages of breast cancer: before surgery (also called neoadjuvant chemotherapy), after surgery and after metastasis. Neoadjuvant chemotherapy is often used to shrink tumors to make them more operable. There are two main categories of cytotoxic chemotherapy drugs for breast cancer: anthracyclines and taxanes. Many different combinations of the two types of drugs have been used for treating breast cancer, despite the fact that no effective guidelines are available for the selection of a specific regimen for a patient (Dotan, et al., 2010). Herein, data was collected from 1111 breast cancer patients from GEO database (Gene Expression Omnibus (Edgar, et al., 2002, Barrett, et al., 2013)), where clinical information including responses to chemotherapy and gene expression data are available. […] Among the 1111 patients, 21.2% of them have pCR and the rest have RD as their responses. […]
1111 breast cancer tumor samples were collected from 7 data series in GEO database (Gene Expression Omnibus (Takada, et al., 2012, Albain, et al., 2010)) (Table 2). […] R (Liu, et al., 2012) package Affyio (Edgar, et al., 2002) was used to read and normalize the Affymetrix® data. […]

## CC(=O)O[C@@]12CO[C@@H]1C[C@H](O)[C@@]1(C)C(=O)[C@H](O)C3=C(C)[C@@H](OC(=O)[C@H](O)[C@@H](NC(=O)OC(C)(C)C)c4ccccc4)C[C@@](O)([C@@H](OC(=O)c4ccccc4)[C@H]21)C3(C)C [docetaxel]
  percentage of patients who have pCR: 33.1%

## CC(=O)O[C@H]1C(=O)[C@@]2(C)[C@H]([C@H](OC(=O)c3ccccc3)[C@]3(O)C[C@H](OC(=O)[C@H](O)[C@@H](NC(=O)c4ccccc4)c4ccccc4)C(C)=C1C3(C)C)[C@]1(OC(C)=O)CO[C@@H]1C[C@@H]2O [paclitaxel]
  percentage of patients who have pCR: 19.7%
